We go through two compounds from US4062948A, “Dihydromocimycin antibiotics” (Gist-Brocades N.V., priority 1970, dated 1977).

Each structure is given as a SMILES string. Where a name gives a salt, the structure may show the parent alone.

Holding throughout (format): in vivo
Test [1] is described as follows: growth promotion in pigs (Example III). The note with it: control = 100. The procedure: The sodium salt of mocimycin as obtained in Example I, was pre-mixed with wheat flour which mixture, added to the feed, was administered to pigs. The amount of the antibiotic present in the feed (based on the weight of the feed) is given hereinbelow in Table VII, in which the average relative weights of the pigs after 6 and 12 weeks, respectively are given.

The nature of test [2]: growth promotion in slaughter chickens (Example II). The note with it: control = 100. An excerpt: Slaughter chickens are given mocimycin in the form of the sodium salt obtained in Example 1, in a mixture with component of the feed (wheat flour), the amount of antibiotic in the feed (based on the weight of the feed) being as specified in the following Table, which gives the weight of the chickens after 3, 5 and 7 weeks.

Test [3] deals with microorganism causing Treponema dysentery. Put plainly: pigs infected with Treponema dysentery (Example VI). The source says:
Twenty pigs, 3 months old, were infected with the microorganism causing Treponema dysentery by administering to them feed mixed with a homogenous mixture of contents of the intestines and intestinal mucous membranes of two animals suffereing from the disease. The infected pigs were divided into four groups of five animals each and the animals were fed with the feed as a slurry diluted 1:1 with water for 1 week. The total amount of feed per animal was 1.2 kg each day and was given in two portions.
After 5 days, the first symptoms of the disease were observed from the thin faeces and confirmed by a microbiological investigation of the faeces and […] a week, the animals were treated as follows:
group 2: 100 ppm of tylosin were added to the feed;
group 3: 25ppm of dihydromocimycin were added to the feed; and
group 4: 50 ppm of dihydromocimycin were added to the feed.
The antibiotic-enriched feed was administered for a week. After that week, feed without any antibiotic was given again. Recovery from the infection was observed from the weights of the animals and from inspection samples of the faeces, macroscopically from their consistencies, and microscopically by means of a specific immuno-fluoroescence technique. During the test, one animal of each of groups 1, 3 and 4 died.
The results are shown in the following Table wherein the weights indicated are the averages at that time of the still living animals. The consistency of the faeces is indicated as follows:
+ means thin liquid; ± means thick liquid; - means normal. The results of the immuno-fluorescence technique are indicated quantitatively by indicating the number of Treponemas in the visual field: 5 means very crowded; 4 means many; 3 means about 10 Treponemas; 2 means 1 or 2 Treponemas, 1 means more visual fields necessary to find one Treponema, and - means negative.

For `CC=CC=CC1OC(O)(C(CC)C(=O)NCC=CC=C(C)C(OC)C(C)C2OC(C=CC=CC=C(C)C(=O)c3c(O)cc[nH]c3=O)C(O)C2O)C(O)C(O)C1(C)C` (stereo not drawn) [sodium salt of mocimycin], the feed conversion was 95 in test [1] (5 ppm in feed, 6 weeks); 98 in test [1] (5 ppm in feed, 12 weeks); 92.5 in test [1] (10 ppm in feed, 6 weeks); 99 in test [1] (10 ppm in feed, 12 weeks). Besides, the “growth (average relative weight)” value in test [1] (5 ppm in feed, 6 weeks) amounted to 107; in test [1] (5 ppm in feed, 12 weeks) it was 104.5; in test [1] (10 ppm in feed, 6 weeks) it was 108.5; in test [1] (10 ppm in feed, 12 weeks) it was 104. For the same compound, the “weight of chickens relative to control (control = 100)” value in test [2] (5 ppm in feed, 3 weeks) was found to be 104%; in test [2] (5 ppm in feed, 5 weeks), 103%; in test [2] (5 ppm in feed, 7 weeks), 103%; in test [2] (10 ppm in feed, 3 weeks), 107%; in test [2] (10 ppm in feed, 5 weeks), 105%; in test [2] (10 ppm in feed, 7 weeks), 104%. Further, the “weight of chickens relative to control (control = 100)” value in test [2] (20 ppm in feed, 3 weeks) was found to be 109%; in test [2] (20 ppm in feed, 5 weeks) it was 107%; in test [2] (20 ppm in feed, 7 weeks) it was 105%.
`CC[C@H]1OC(=O)C[C@@H](O)[C@H](C)[C@@H](O[C@@H]2O[C@H](C)[C@@H](O[C@H]3C[C@@](C)(O)[C@@H](O)[C@H](C)O3)[C@H](N(C)C)[C@H]2O)[C@@H](CC=O)C[C@@H](C)C(=O)/C=C/C(C)=C/[C@@H]1CO[C@@H]1O[C@H](C)[C@@H](O)[C@@H](OC)[C@H]1OC` [tylosin, reference compound]: the Weights turned out to be 22.2 kg in test [3] (tylosin 100 ppm group, after 1 week (start of antibiotics)); 24.4 kg in test [3] (tylosin 100 ppm group, just before infection (baseline)); 21.4 kg in test [3] (tylosin 100 ppm, after 2 weeks); 23.2 kg in test [3] (tylosin 100 ppm, after 3 weeks).
